From paper PMC10388363, “Novel 1,4-Dihydropyridines as Specific Binders and Activators of SIRT3 Impair Cell Viability and Clonogenicity and Downregulate Hypoxia-Induced Targets in Cancer Cells” (Journal of Medicinal Chemistry, 2023)

Assays:
[1] = test system: HIF-1α, EPAS-1, and CA-IX protein expression in CAL-62; assay: Western blot of HIF-1α, EPAS-1 and CA-IX in CAL-62 cells under hypoxia; assay type: cell-based
Protocol: (§1) Based on these findings, we decided to assess the ability of the SIRT3 activators 3a–d to impair HIF-1α, EPAS-1, and CA-IX protein expression in CAL-62 (Figure 10A–F) and MDA-MB-231 (Figure 11A–F) cell lines treated with the compounds at 50 μM for 48 h and under hypoxia conditions.
(§2) Breast cancer cell line MDA-MB-231, anaplastic thyroid cancer cell line CAL-62 and human keratinocytes HaCaT were purchased from ATCC and were cultured in RPMI 1640 medium (R0883 Sigma Aldrich-MERCK) (MDA-MB-231 and CAL-62) or DMEM medium (11965092, Gibco) supplemented with 10% fetal bovine serum (Sigma-Aldrich-MERCK, F9665), 2 mM glutamine (G7513; Sigma-Aldrich-MERCK), 100 units/mL penicillin and 0.1 mg/mL streptomycin (P0781; Sigma-Aldrich-MERCK). Adherent cells were detached by Trypsin–EDTA solution (TA049; Sigma-Aldrich-MERCK). Cells were maintained at 37 °C in humidified incubator with 5% CO2. Cells were treated with […] (CoCl2) (Merck; C8661) dissolved in distilled, sterile water for 24 h to induce hypoxia (200 μM). Hypoxic and normoxic cells were also treated with 10/50 μM of the indicated compounds (dissolved in DMSO) for 48 h, maintaining the CoCl2 in the culture medium for hypoxic conditions. SIRT3 inhibitor 3-TYP was dissolved in DMSO and added to a final concentration of 1 μM for 24 and/or 48 h.
(§3) The following antibodies were used in this study: ACTB (Merck; A5316), HIF1-α (Cell Signaling; 14179), HIF2/EPAS-1 (Santa Cruz Biotechnology sc-13596), HXKII (Santa Cruz Biotechnology sc-6521), CAIX (Novus Biotechnology NB100-417), SIRT3 (Cell Signaling; 2627S), MnSOD (Abcam ab13533), MnSOD K68 (Abcam ab137037), MnSOD K122 (Abcam ab214675), peroxidase-conjugated AffiniPure Goat Anti-Rabbit IgG (H + L) (Jackson ImmunoResearch; 111-035-003), and peroxidase-conjugated AffiniPure Goat Anti-Mouse IgG (H + L) (Jackson ImmunoResearch; 115-035-062).
(§4) Treated and untreated cells were collected and centrifuged at 3000 rpm for 5 min. After removing the supernatant, cells were lysed in 70 μL of lysis buffer containing: 50 mM Tris-Cl (Merck; 93352), 250 mM sodium chloride (NaCl, Merck; S7653), 5 mM ethylenediaminetetraacetic acid (EDTA; Merck; E6758), 0.1% Triton X-100 and 0.1 mM dithiothreitol (Merck; D9163) plus 1 mM phenylmethylsulfonyl fluoride (PMSF, Merck; 93482), protease inhibitor cocktail (PI; Merck; P8340), 1 mM sodium orthovanadate (NA3VO4, Merck; S6508), and 10 mM sodium fluoride (NaF, Merck; 201154) (lysis buffer). After 30 min on ice, samples were centrifuged at 13,000 rpm for 10 min at 4 °C, and the supernatants collected. Protein concentration was determined by the Bradford assay (Bio-Rad; 500-0205). The equivalent of 15 or 50 μg of protein was boiled for 5 min, electrophoresed onto denaturing SDS-PAGE gel, and transferred onto a […] nitrocellulose membrane (Bio-Rad; 162-0115). After blocking with 5% milk, membranes were incubated with the appropriate primary antibody overnight. The next day, after three washes with 0.1% Tween 20 (Merck; P9416) in PBS (PBST) for 30 min at rt, membranes were incubated with the appropriate secondary antibody for 1 h at rt. After three more washes in PBST, the detection of the relevant protein was assessed by enhanced chemiluminescence (Lite Ablot TURBO, Euro-Clone; EMP012001). Densitometric analysis of the bands, relative to ACTB, was performed using ImageJ Software v1.51 (NIH, Bethesda, MD, USA).

[2] = test system: HIF-1α, EPAS-1, and CA-IX protein expression in MDA-MB-231; assay: Western blot of HIF-1α, EPAS-1 and CA-IX in MDA-MB-231 cells under hypoxia; assay type: cell-based, human; settings: MDA-MB-231, hypoxia, negative control SIRT3 inhibitor
Protocol: as §1, §2, §3, §4

[3] = test system: acK68- and acK122-MnSOD in MDA-MB-231 cells; assay: Western blot of MnSOD acK68 and acK122 marks in MDA-MB-231 cells; assay type: cell-based, human; settings: MDA-MB-231, negative control SIRT3 inhibitor
Protocol: (§5) K68-MnSOD acetylation promotes a transformation-permissive phenotype, leading to a chemotherapy-resistant breast cancer cell model using cisplatin and doxorubicin.[68] […] The specific SIRT3 inhibitor 3-TYP was utilized as negative control.
as §2, with “Hypoxic and normoxic cells were also treated with 10/50 μM of the indicated compounds (dissolved in DMSO) for 48 h, maintaining the CoCl2 in the culture medium for hypoxic conditions. SIRT3 inhibitor 3-TYP was dissolved in DMSO and added to a final concentration of 1 μM for 24 and/or 48 h.” left out
as §3
(§6) Treated and untreated cells were collected and centrifuged at 3000 rpm for 5 min. […] Protein concentration was determined by the Bradford assay (Bio-Rad; 500-0205). […] After three more washes in PBST, the detection of the relevant protein was assessed by enhanced chemiluminescence (Lite Ablot TURBO, Euro-Clone; EMP012001). […]

[4] = test system: acK68- and acK122-MnSOD in CAL-62 cells; assay: Western blot of MnSOD acK68 and acK122 marks in CAL-62 cells; assay type: cell-based; settings: CAL-62, negative control SIRT3 inhibitor
Protocol: as §5
as §2, with “Hypoxic and normoxic cells were also treated with 10/50 μM of the indicated compounds (dissolved in DMSO) for 48 h, maintaining the CoCl2 in the culture medium for hypoxic conditions. SIRT3 inhibitor 3-TYP was dissolved in DMSO and added to a final concentration of 1 μM for 24 and/or 48 h.” left out
as §6

[5] = test system: GDH activity in MDA-MB-231 cells; assay: GDH activity assay in lysates of treated MDA-MB-231 cells; assay type: cell-based, human; settings: 50 μM, 4 h
Protocol: Selected compounds 3a–d were tested in triple-negative breast cancer MDA-MB-231 cells to evaluate their effects on SIRT3 physiological substrates. First, the effect on the activity of GDH (an established SIRT3 substrate activated through deacetylation[60]−[62]) was investigated by a coupled enzyme assay. […] These effects of SIRT3 activators clearly phenocopied those observed in the SIRT3-overexpressing MDA-MB-231 cells (SIRT3^+) (Figure 6).
GDH activity in cells treated or not with the SIRT3 activators 3a–d and the reference compounds 2 and 3 was measured using a GDH activity assay kit (MAK099, Merck) following the manufacturer’s instructions. Briefly, 10^6 cells were lysed in 40 μL of GDH assay buffer and kept for 10 min in ice. Afterward, lysates were centrifuged to collect supernatants. Ten microliters of supernatant were added to 40 μL of GDH buffer and 100 μL of a mix containing GDH assay buffer, developer, and glutamate. The whole mix was transferred into a 96-well plate and incubated at 37 °C for 3 min. Finally, absorbance was read at 450 nm using a GloMax multi detection system (Promega, Milan, Italy). The absorbance of the assay buffer was subtracted from each experimental sample.

human SIRT3 [6] = target: T1, human SIRT3 (Homo sapiens, UniProt Q9NTG7); assay: Surface plasmon resonance binding assay, immobilized SIRT3; settings: SPR, Scatchard analysis, analytes 5-80 μM
T1 construct: pET151D/Topo (Sirt3-114-380 and Sirt5-34-302); His tag (N, cleaved yes); made in house; host or cells: Escherichia coli
T1 sequence (Q9NTG7 114-380): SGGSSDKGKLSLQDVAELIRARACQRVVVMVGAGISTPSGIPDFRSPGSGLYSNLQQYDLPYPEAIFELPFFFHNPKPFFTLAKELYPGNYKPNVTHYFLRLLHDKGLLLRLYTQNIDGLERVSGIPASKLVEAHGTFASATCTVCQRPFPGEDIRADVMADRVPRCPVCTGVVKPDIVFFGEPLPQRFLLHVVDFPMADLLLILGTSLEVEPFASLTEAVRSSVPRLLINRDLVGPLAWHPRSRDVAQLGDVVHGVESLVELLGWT
Protocol: Next, surface plasmon resonance (SPR) experiments were conducted with selected SIRT3 activators 2e and 3a–d to ascertain their biophysical interaction with the human SIRT3 protein. Their parental compounds 2 and 3, together with honokiol, were used as positive controls. The experiments were carried out twice at different concentrations (5, 10, 20, 40, and 80 μM), by injecting the compounds at increasing doses (Figure 5). The resonance units (RU) increase with respect to baseline indicates the formation of the SIRT3/ligand complex, the plateau region represents the steady-state phase of the interaction (RUeq, RU at equilibrium) and the decrease in RU after 180 s represents dissociation of analytes from the immobilized SIRT3 protein after injection of the buffer.
SPR experiments were carried out using a SensiQ Pioneer system (SensiQ, Oklahoma City, OK, USA), essentially as in Genovese et al. 2020[84] and in Battista et al. 2021,[85] with some modifications, as follows.
The sensor chip (COOH5) was chemically activated by a 35 μL injection of a 1:1 mixture of […] (200 mM) and N-hydroxysuccinimide (50 mM) at a flow rate of 5 μL/min. Sirtuin3 (ligand) was immobilized on activated sensor chips via amine coupling. Immobilization was carried out in 20 mM sodium acetate at pH 4.0; unreacted groups were blocked by injecting 1 M ethanolamine hydrochloride (35 μL). Sirtuin3 immobilization level obtained was 1500–4000 RU.
The analytes, dissolved in 100% DMSO at 10 mM concentration, were diluted in buffer 20 mM Hepes, 150 mM NaCl, 0.005% surfactant P20 buffer (HBSP) to a concentration of 200 μM (2% final DMSO concentration), further diluted in HBSP + 2% DMSO (HBSP2%D) and injected on the sensor chip at a constant flow rate (nominal flow rate = 30 μL/min) at the following concentrations: 5, 10, 20, 40, and 80 μM.
The RU increase relative to baseline indicates complex formation (taking place at known analytes concentrations at each moment in the gradient); the plateau region represents the steady-state phase of the interaction (RUeq); and the decrease in RU after 180 s represents dissociation of analytes from the immobilized Sirtiun3 after injection of HBSP2%D. Regeneration procedures are based on two long (2000 and 500 s) injections of buffer, separated by a brief (5 s) injection of 10 mM NaOH.
Control experiments were performed in sensor chips treated as described above in the absence of an immobilized ligand. Kinetic evaluation of the sensorgrams was obtained using the SensiQ Qdat program and full fitting with 1, 2, and 3 sites; Scatchard analysis was used to determine apparent KD values.

human SIRT3 [7] = target: T1, human SIRT3; set-up: method as in PMID 36228194; settings: 100 μM; cited from earlier work

c1cncc(-c2cnn[nH]2)c1 [3-TYP, reference compound]
HIF-1α, EPAS-1, and CA-IX protein expression ([1]; CAL-62, hypoxia, negative control SIRT3 inhibitor): negligible effects | HIF-1α, EPAS-1, and CA-IX protein expression [2]: did not show any activity | acetylation levels of both K68 and K122 residues of MnSOD [3]: markedly increased | acetylation levels of both K68 and K122 residues of MnSOD [4]: markedly increased

CCOC(=O)C1=CN(C(=O)c2cc(OC)c(OC)c(OC)c2)C=C(C(=O)OCC)C1c1ccccc1 [Compound 3]
GDH activation [5]: around 175% | Kd (human SIRT3 [6]): 40 to 47 µM | SIRT3 activation (human SIRT3 [7]): over 400%

CCOC(=O)C1=CN(C(=O)c2ccc(OC)cc2)C=C(C(=O)OCC)C1c1ccccc1 [Compound 3b, Diethyl 1-(4-methoxybenzoyl)-4-phenyl-1,4-dihydropyridine-3,5-dicarboxylate]
effect on GDH activity in cell lysates [5]: negligible effect | CA-IX protein expression ([1]; CAL-62, 50 μM, 48 h, hypoxia): significantly downregulated

C=CCc1ccc(O)c(-c2ccc(O)c(CC=C)c2)c1 [honokiol]
Kd (human SIRT3 [6]): 40 to 47 µM
